Experimental data as given in the CheMixHub drug solubility set.

Assay: xn = mol fraction of the nth substance listed, in the solute-free solvent

Cc1nc2n(c(=O)c1CCN1CCC(c3noc4cc(F)ccc34)CC1)CCCC2 + CC(C)=O + O
solubility (g/100 g solution)
Conditions | 278.15 K | 283.15 K | 288.15 K | 293.15 K | 298.15 K | 303.15 K | 308.15 K | 313.15 K
x2 = 0.1175 | 0.369 | 0.399 | 0.453 | 0.525 | 0.623 | 0.702 | 0.817 | 0.918
x2 = 0.1714 | 0.727 | 0.805 | 0.935 | 1.11 | 1.27 | 1.53 | 1.7 | 2.03
x2 = 0.2368 | 1.54 | 1.75 | 2.02 | 2.34 | 2.73 | 3.22 | 3.75 | 4.38
x2 = 0.3171 | 2.54 | 2.93 | 3.36 | 3.95 | 4.61 | 5.44 | 6.41 | 7.62
x2 = 0.42 | 3.38 | 3.87 | 4.49 | 5.26 | 6.16 | 7.21 | 8.51 | 10.1
x2 = 0.5538 | 3.5 | 4.03 | 4.71 | 5.51 | 6.46 | 7.65 | 9.06 | 10.7
x2 = 0.7366 | 2.51 | 2.92 | 3.5 | 4.08 | 4.75 | 5.67 | 6.67 | 7.88

CC(S)C(=O)NCC(=O)O (centres undefined) + CCCCO + CC#N
solubility (g/100 g solution)
Conditions | 273.15 K | 278.15 K | 283.15 K | 288.15 K | 293.15 K | 298.15 K | 303.15 K | 308.15 K | 313.15 K | 318.15 K
x2 = 0.1216 | 3.87 | 4.43 | 4.99 | 5.57 | 6.21 | 6.84 | 7.49 | 8.19 | 8.94 | 9.75
x2 = 0.2697 | 4.29 | 4.96 | 5.69 | 6.46 | 7.28 | 8.08 | 8.92 | 9.79 | 10.7 | 11.9
x2 = 0.4538 | 4.43 | 4.94 | 5.58 | 6.3 | 7.26 | 8.29 | 9.41 | 10.6 | 11.8 | 13
x2 = 0.689 | 4.42 | 5.29 | 6.26 | 7.32 | 8.38 | 9.51 | 10.7 | 12 | 13.3 | 14.7

CC(S)C(=O)NCC(=O)O (centres undefined) + CCCCO + Cc1ccccc1
solubility (g/100 g solution)
Conditions | 273.15 K | 278.15 K | 283.15 K | 288.15 K | 293.15 K | 298.15 K | 303.15 K | 308.15 K | 313.15 K | 318.15 K
x2 = 0.2371 | 0.947 | 1.12 | 1.28 | 1.47 | 1.67 | 1.87 | 2.08 | 2.33 | 2.6 | 2.92
x2 = 0.4531 | 2.23 | 2.53 | 2.88 | 3.29 | 3.76 | 4.25 | 4.73 | 5.25 | 5.84 | 6.48
x2 = 0.6509 | 2.84 | 3.41 | 4.01 | 4.7 | 5.45 | 6.25 | 7.12 | 7.99 | 8.88 | 10
x2 = 0.8325 | 3.57 | 4.44 | 5.37 | 6.33 | 7.31 | 8.43 | 9.63 | 11 | 12.3 | 13.9

CCCSc1ccc2[nH]c(NC(=O)OC)nc2c1 + CCO + O
solubility (g/100 g solution)
Conditions | x2 = 0.0416 | x2 = 0.0891 | x2 = 0.1435 | x2 = 0.2068 | x2 = 0.2811 | x2 = 0.3697 | x2 = 0.4771 | x2 = 0.61 | x2 = 0.7787
288.95 K | 0.00065 | 0.00225 | 0.0048 | 0.00531 | 0.0142 | 0.031 | 0.0476 | 0.0657 | 0.0669
293.15 K | 0.00113 | 0.00279 | 0.0063 | 0.00878 | 0.0211 | 0.0396 | 0.0538 | 0.0706 | 0.0729
297.15 K | 0.00141 | 0.0033 | 0.00736 | 0.0137 | 0.025 | 0.0476 | 0.0643 | 0.0856 | 0.0933
301.25 K | 0.00181 | 0.00417 | 0.00932 | 0.0172 | 0.0324 | 0.0565 | 0.0753 | 0.0966 | 0.11
305.15 K | 0.00257 | 0.00518 | 0.0114 | 0.0207 | 0.04 | 0.0682 | 0.0957 | 0.124 | 0.137
309.15 K | 0.00328 | 0.00624 | 0.0127 | 0.025 | 0.048 | 0.0834 | 0.118 | 0.162 | 0.169
313.05 K | 0.00395 | 0.00729 | 0.0156 | 0.0318 | 0.0594 | 0.104 | 0.149 | 0.204 | 0.208
317.25 K | 0.00594 | 0.00852 | 0.0188 | 0.0386 | 0.0732 | 0.12 | 0.185 | 0.242 | 0.25

Cc1ncc(CO)c(CO)c1O.Cl + O + CCCO
solubility (g/100 g solution)
Conditions | 278.15 K | 283.15 K | 288.15 K | 293.15 K | 298.15 K | 303.15 K | 308.15 K | 313.15 K
x2 = 0.3 | 0.893 | 1.08 | 1.2 | 1.42 | 1.8 | 2.05 | 2.29 | 2.62
x2 = 0.4 | 1.59 | 1.9 | 2.23 | 2.65 | 3.25 | 3.59 | 4.15 | 4.99
x2 = 0.5 | 2.6 | 3.07 | 3.42 | 4.1 | 5 | 5.68 | 6.43 | 7.5
x2 = 0.6 | 3.83 | 4.45 | 4.91 | 6.02 | 7.03 | 8.29 | 9.47 | 11.3
x2 = 0.7 | 5.37 | 6.24 | 6.84 | 8.27 | 9.8 | 11.7 | 13.3 | 15.1
x2 = 0.8 | 6.99 | 8.36 | 9.28 | 10.7 | 12.8 | 15.4 | 17.8 | 19.6
x2 = 0.9 | 8.57 | 10.3 | 11.9 | 13.8 | 16 | 19 | 21.1 | 24.1
